These results are taken from EPA's ToxValDB 9.5 (doi:10.2903/j.efsa.2014.3787).

Some results are limits rather than exact numbers.

As usually defined, the NOAEL is the highest dose or exposure tested at which no adverse effect was seen. A word on the LOAEL: it is the lowest dose or exposure tested at which an adverse effect was seen.

Series [1] has as its system Daphnia magna. The note with it: chronic/long-term; duration: 21 days; mobility.
Series [2] deals with Tagia sp. The note with it: for LC50: acute, duration: 14 days, mortality; for NOEC: chronic/long-term, duration: 8 weeks.
Series [3] relates to Folsomia candida. The note with it: chronic/long-term, duration: 28 days.
The subject of series [4] is Rattus norvegicus.
In series [5] the test system is Oncorhynchus mykiss.
For series [6], the system named is Colinus virginianus. The note with it: acute, oral.
Series [7] deals with Apis mellifera. Conditions: acute, duration: 72 hours, mortality.
The test system of series [8] is Hypoaspis aculeifer. Conditions: acute, duration: 14 days.
For series [9], the system named is Coturnix japonica. Conditions: reproduction developmental; duration: 6 weeks.
In series [10] the test system is Lepomis macrochirus. The note with it: acute; duration: 96 hours; mortality.
Series [11] has as its system Oryctolagus sp.
Series [12] relates to Typhlodromus pyri. The series is described as follows: LR50; higher = less toxic. Conditions: chronic/long-term; duration: 7 days; mortality.
The subject of series [13] is Aphidius rhopalosiphi. The series can be described thus: LR50; higher = less toxic. The note with it: acute; duration: 48 hours; mortality.

As for `CCOc1nc(NC)nc(NC(=O)NS(=O)(=O)c2ccccc2C(=O)OC)n1` [Ethametsulfuron-methyl], the NOEC in [1] was determined as 4.7 mg/L; in series [2] (reproduction), 27.3 mg/kg; in series [3] (reproduction) it was 100 mg/kg; in series [5] (chronic/long-term, duration: 87 days, growth), 5.4 mg/L; in series [8] (reproduction), 100 mg/kg; in [9], 229 mg/kg-day. The LC50 is 116 mg/kg in series [2]; greater than 126 µg/mL in series [5] (acute, duration: 96 hours, mortality); greater than 123 µg/mL in [10]. Also, the LD50 in series [4] (acute, oral, mortality) was greater than 5000 mg/kg-day; in series [6] (duration: 5 days, diet), greater than 1160 mg/kg-day; in [6], 2250 mg/kg-day; in [7] (dermal), 4.62 µg/piece; in series [7] (oral, unspecified), 40.8 µg/piece. The NOAEL in [4] (chronic, duration: 2 years, clinical chemistry) amounted to 21 mg/kg-day; in series [11] (reproduction developmental, organ weight), 250 mg/kg-day. Also, the LOAEL in series [11] (developmental, development) was 250 mg/kg-day. Moreover, the LR50 was greater than 11.4 g/ha in [12] and greater than 18.8 g/ha in series [13].

As for `CCOc1nc(NC)nc(NC(N)=O)n1` [Ethametsulfuron methyl metabolite (IN-B9161)], the NOEC in [3] and in [8] was 76.9 mg/kg throughout.

In series [2], `CCOc1nc(N)nc(NC(=O)NS(=O)(=O)c2ccccc2C(=O)OC)n1` [N-Demethyl ethametsulfuronmethyl] had an LC50 greater than 100 mg/kg. Besides, the NOEC in [3] was 50 mg/kg.

In [2], `NS(=O)(=O)c1ccccc1C(=O)O` [2-Sulfamoylbenzoic acid] had an LC50 greater than 1000 mg/kg and an NOEC of 1000 mg/kg.
